Test results as given in patent US9850256B2, “Antibacterial basic biaromatic derivatives with aminoalkoxy substitution” (priority 2014, dated 2017).
Converted amounts (≈) assume the structure as drawn.

Tests used:
Assay in all cases: Bacterial growth minimal inhibitory concentration (microdilution, cation-adjusted Mueller-Hinton Broth)
[1] = tested on: K. pneumoniae T6474; format: cell-based, Klebsiella pneumoniae; conditions: multiply-resistant strain (penicillin-, cephalosporin- and quinolone-resistant); for MIC: Klebsiella pneumoniae, T6474
Procedure: (§1) Minimal Inhibitory Concentrations (MICs; mg/L) were determined in cation-adjusted Mueller-Hinton Broth by a microdilution method following the description given in “Methods for Dilution Antimicrobial Susceptibility Tests for Bacteria that Grow Aerobically”, Approved standard, 7th ed., Clinical and Laboratory Standards Institute (CLSI) Document M7-A7, Wayne, Pa., USA (2006).
(§2) All Example compounds were tested against several Gram positive and Gram negative bacteria. […] Staphylococcus aureus A798 is a multiply-resistant strain (methicillin- and quinolone-resistant), Klebsiella pneumoniae T6474 is a multiply-resistant strain (penicillin-, cephalosporin- and in particular quinolone-resistant), while E. coli ATCC25922 and Pseudomonas aeruginosa ATCC 27853 are quinolone-sensitive strains.

[2] = tested on: E. coli ATCC25922; format: cell-based; conditions: quinolone-sensitive strain; for MIC: Escherichia coli, ATCC25922
Procedure: as §1, §2

[3] = tested on: S. aureus A798; format: cell-based, Staphylococcus aureus; conditions: multiply-resistant strain (methicillin- and quinolone-resistant); for MIC: Staphylococcus aureus, A798
Procedure: as §1, §2

[4] = tested on: P. aeruginosa ATCC 27853; format: cell-based, Pseudomonas aeruginosa; conditions: quinolone-sensitive strain; for MIC: Pseudomonas aeruginosa, ATCC27853
Procedure: as §1, §2

MIC [1]	MIC [2]	MIC [3]	MIC [4]	SMILES	MIC for K. pneumoniae T6474 [1]	MIC for E. coli ATCC25922 [2]	MIC for S. aureus A798 [3]	MIC for P. aeruginosa ATCC 27853 [4]
4 µg/mL	4 µg/mL	4 µg/mL	4 µg/mL	CC(CN)Oc1cccc(-c2cccc(CNCC[C@H]3CN(c4ccc5c(n4)NC(=O)CO5)C(=O)O3)c2)c1 (mixture of isomers) [Example 6, 6-((S)-5-(2-(((3′-(((RS)-1-aminopropan-2-yl)oxy)-[1,1′-biphenyl]-3-yl)methyl)amino)ethyl)-2-oxooxazolidin-3-yl)-2H-pyrido[3,2-b][1,4]oxazin-3(4H)-one]				
1 µg/mL	1 µg/mL	2 µg/mL	1 µg/mL	O=C1COc2ccc(N3C[C@H](CCNCc4cccc(-c5cccc(OC6CCNC6)c5)c4)OC3=O)nc2N1 (mixture of isomers) [Example $103, 6-[(S)-2-oxo-5-(2-{[3′-((RS)-pyrrolidin-3-yloxy)-biphenyl-3-ylmethyl]-amino}-ethyl)-oxazolidin-3-yl]-4H-pyrido[3,2-b][1,4]oxazin-3-one]				
2 µg/mL	1 µg/mL	0.5 µg/mL	1 µg/mL	O=C1COc2ccc(N3C[C@H](CCNCc4cccc(-c5cccc(OCC6CNCCO6)n5)c4)OC3=O)nc2N1.O=CO (mixture of isomers) [Example $109, 6-[(S)-5-(2-{3-[6-((RS)-1-morpholin-2-ylmethoxy)-pyridin-2-yl]-benzylamino}-ethyl)-2-oxo-oxazolidin-3-yl]-4H-pyrido[3,2-b][1,4]oxazin-3-one formate]				
2 µg/mL	1 µg/mL	0.25 µg/mL	2 µg/mL	O=C1COc2ccc(N3C[C@H](CCNCc4cccc(-c5cccc(OCC6COCCN6)n5)c4)OC3=O)nc2N1.O=CO (mixture of isomers) [Example $110, 6-[(S)-5-(2-{3-[6-((RS)-1-morpholin-3-ylmethoxy)-pyridin-2-yl]-benzylamino}-ethyl)-2-oxo-oxazolidin-3-yl]-4H-pyrido[3,2-b][1,4]oxazin-3-one formate]				
2 µg/mL	2 µg/mL	1 µg/mL	2 µg/mL	O=C1COc2ccc(N3C[C@H](CCNCc4cccc(-c5cccc(OC6CCCNC6)n5)c4)OC3=O)nc2N1.O=CO (mixture of isomers) [Example $111, 6-[(S)-2-oxo-5-(2-{3-[6-((RS)-piperidin-3-yloxy)-pyridin-2-yl]-benzylamino}-ethyl)-oxazolidin-3-yl]-4H-pyrido[3,2-b][1,4]oxazin-3-one formate]				
2 µg/mL	1 µg/mL	0.5 µg/mL	2 µg/mL	CCN1CCC(Oc2cccc(-c3cccc(CNCC[C@H]4CN(c5ccc6c(n5)NC(=O)CO6)C(=O)O4)c3)n2)C1 (mixture of isomers) [Example $126, 6-[(S)-5-(2-{3-[6-((RS)-1-ethyl-pyrrolidin-3-yloxy)-pyridin-2-yl]-benzylamino}-ethyl)-2-oxo-oxazolidin-3-yl]-4H-pyrido[3,2-b][1,4]oxazin-3-one]				
4 µg/mL	2 µg/mL	0.5 µg/mL	4 µg/mL	CC(C)N1CCC(Oc2cccc(-c3cccc(CNCC[C@H]4CN(c5ccc6c(n5)NC(=O)CO6)C(=O)O4)c3)n2)C1 (mixture of isomers) [Example $134, 6-[(S)-5-(2-{3-[6-((RS)-1-isopropyl-pyrrolidin-3-yloxy)-pyridin-2-yl]-benzylamino}-ethyl)-2-oxo-oxazolidin-3-yl]-4H-pyrido[3,2-b][1,4]oxazin-3-one]				
1 µg/mL	0.5 µg/mL	0.5 µg/mL	0.5 µg/mL	C[C@H]1NC[C@H]1Oc1cccc(-c2cccc(CNCC[C@H]3CN(c4ccc5c(n4)NC(=O)CO5)C(=O)O3)c2)n1 (mixture of isomers) [Example $135, 6-[(S)-5-(2-{3-[6-((2RS,3RS)-2-methyl-azetidin-3-yloxy)-pyridin-2-yl]-benzylamino}-ethyl)-2-oxo-oxazolidin-3-yl]-4H-pyrido[3,2-b][1,4]oxazin-3-one]				
2 µg/mL	2 µg/mL	0.5 µg/mL	2 µg/mL	CN1CCC[C@H](Oc2cccc(-c3cccc(CNCCC4CN(c5ccc6c(n5)NC(=O)CO6)C(=O)O4)c3)n2)C1 (mixture of isomers) [Example $142, 6-[(RS)-5-(2-{3-[6-((S)-1-methyl-piperidin-3-yloxy)-pyridin-2-yl]-benzylamino}-ethyl)-2-oxo-oxazolidin-3-yl]-4H-pyrido[3,2-b][1,4]oxazin-3-one]				
1 µg/mL	0.5 µg/mL	0.125 µg/mL	1 µg/mL	C[C@@H]1[C@H](Oc2cccc(-c3cccc(CNCC[C@H]4CN(c5ccc6c(n5)NC(=O)CO6)C(=O)O4)c3)n2)CN1C (mixture of isomers) [Example $178, 6-[(S)-5-(2-{3-[6-((2RS,3RS)-1,2-dimethyl-azetidin-3-yloxy)-pyridin-2-yl]-benzylamino}-ethyl)-2-oxo-oxazolidin-3-yl]-4H-pyrido[3,2-b][1,4]oxazin-3-one]				
				NC1[C@H]2CN(CCOc3cccc(-c4cccc(CNCC[C@H]5CN(c6ccc7c(n6)NC(=O)CO7)C(=O)O5)c4)c3)C[C@@H]12 (mixture of isomers) [Example $117, 6-{(S)-5-[2-({3′-[2-((1R*,5S*,6RS)-6-amino-3-aza-bicyclo[3.1.0]hex-3-yl)-ethoxy]-biphenyl-3-ylmethyl}-amino)-ethyl]-2-oxo-oxazolidin-3-yl}-4H-pyrido[3,2-b][1,4]oxazin-3-one]	1 µg/mL	1 µg/mL	1 µg/mL	4 µg/mL
2 µg/mL (≈ 3.67 µM)	1 µg/mL (≈ 1.84 µM)	0.5 µg/mL (≈ 0.918 µM)	0.5 µg/mL (≈ 0.918 µM)	C[C@@H]1NCC[C@@H]1Oc1cccc(-c2cccc(CNCC[C@H]3CN(c4ccc5c(n4)NC(=O)CO5)C(=O)O3)c2)n1 (relative stereo) [Example $172, 6-[(S)-5-(2-{3-[6-((2S*,3S*)-2-methyl-pyrrolidin-3-yloxy)-pyridin-2-yl]-benzylamino}-ethyl)-2-oxo-oxazolidin-3-yl]-4H-pyrido[3,2-b][1,4]oxazin-3-one]				
2 µg/mL (≈ 3.67 µM)	1 µg/mL (≈ 1.84 µM)	0.5 µg/mL (≈ 0.918 µM)	1 µg/mL (≈ 1.84 µM)	C[C@@H]1CNC[C@H]1Oc1cccc(-c2cccc(CNCC[C@H]3CN(c4ccc5c(n4)NC(=O)CO5)C(=O)O3)c2)n1 (relative stereo) [Example $173, 6-[(S)-5-(2-{3-[6-((3S*,4R*)-4-methyl-pyrrolidin-3-yloxy)-pyridin-2-yl]-benzylamino}-ethyl)-2-oxo-oxazolidin-3-yl]-4H-pyrido[3,2-b][1,4]oxazin-3-one]				
2 µg/mL (≈ 3.58 µM)	2 µg/mL (≈ 3.58 µM)	0.25 µg/mL (≈ 0.448 µM)	2 µg/mL (≈ 3.58 µM)	C[C@H]1[C@@H](Oc2cccc(-c3cccc(CNCC[C@H]4CN(c5ccc6c(n5)NC(=O)CO6)C(=O)O4)c3)n2)CCN1C (relative stereo) [Example $176, 6-[(S)-5-(2-{3-[6-((2S*,3S*)-1,2-dimethyl-pyrrolidin-3-yloxy)-pyridin-2-yl]-benzylamino}-ethyl)-2-oxo-oxazolidin-3-yl]-4H-pyrido[3,2-b][1,4]oxazin-3-one]				
4 µg/mL (≈ 7.16 µM)	2 µg/mL (≈ 3.58 µM)	0.5 µg/mL (≈ 0.895 µM)	4 µg/mL (≈ 7.16 µM)	C[C@@H]1CN(C)C[C@H]1Oc1cccc(-c2cccc(CNCC[C@H]3CN(c4ccc5c(n4)NC(=O)CO5)C(=O)O3)c2)n1 (relative stereo) [Example $177, 6-[(S)-5-(2-{3-[6-((3S*,4R*)-1,4-dimethyl-pyrrolidin-3-yloxy)-pyridin-2-yl]-benzylamino}-ethyl)-2-oxo-oxazolidin-3-yl]-4H-pyrido[3,2-b][1,4]oxazin-3-one]				
8 µg/mL (≈ 14.3 µM)	4 µg/mL (≈ 7.14 µM)	8 µg/mL (≈ 14.3 µM)	2 µg/mL (≈ 3.57 µM)	CO[C@H]1CNC[C@H]1Oc1cccc(-c2cccc(CNCC[C@H]3CN(c4ccc5c(n4)NC(=O)CO5)C(=O)O3)c2)n1 (relative stereo) [Example $184, (3R*,4S*)-6-[(S)-5-(2-{3-[6-(4-methoxy-pyrrolidin-3-yloxy)-pyridin-2-yl]-benzylamino}-ethyl)-2-oxo-oxazolidin-3-yl]-4H-pyrido[3,2-b][1,4]oxazin-3-one]				
4 µg/mL (≈ 7.36 µM)	4 µg/mL (≈ 7.36 µM)	2 µg/mL (≈ 3.68 µM)	4 µg/mL (≈ 7.36 µM)	N[C@@H]1CC[C@H](Oc2cccc(-c3cccc(CNCC[C@H]4CN(c5ccc6c(n5)NC(=O)CO6)C(=O)O4)c3)c2)C1 [$183, 6-[(S)-5-(2-{[3′-((1S,3R)-3-amino-cyclopentyloxy)-biphenyl-3-ylmethyl]-amino}-ethyl)-2-oxo-oxazolidin-3-yl]-4H-pyrido[3,2-b][1,4]oxazin-3-one]				
1 µg/mL (≈ 1.99 µM)	1 µg/mL (≈ 1.99 µM)	2 µg/mL (≈ 3.97 µM)	2 µg/mL (≈ 3.97 µM)	NCCOc1cccc(-c2cccc(CNCC[C@H]3CN(c4ccc5c(n4)NC(=O)CO5)C(=O)O3)c2)c1 [Example 1, 6-[(S)-5-(2-{[3′-(2-amino-ethoxy)-biphenyl-3-ylmethyl]-amino}-ethyl)-2-oxo-oxazolidin-3-yl]-4H-pyrido[3,2-b][1,4]oxazin-3-one]				
2 µg/mL (≈ 3.76 µM)	2 µg/mL (≈ 3.76 µM)	0.5 µg/mL (≈ 0.941 µM)	4 µg/mL (≈ 7.52 µM)	CN(C)CCOc1cccc(-c2cccc(CNCC[C@H]3CN(c4ccc5c(n4)NC(=O)CO5)C(=O)O3)c2)c1 [Example 2, 6-[(S)-5-(2-{[3′-(2-dimethylamino-ethoxy)-biphenyl-3-ylmethyl]-amino}-ethyl)-2-oxo-oxazolidin-3-yl]-4H-pyrido[3,2-b][1,4]oxazin-3-one]				
